# Reference: US20060270841A1, “Assays to monitor amyloid precursor protein processing” (priority 2002, published 2006)
# What was measured:
# Format in all cases: cell-based
# APP processing [1] = assay: APP/TAT fusion protein with LTR-EGFP reporter (pMM321), transient transfection in HEK293T cells (Example 2); conditions: for # Bright / # Med / # Non / # Strong: count from photographs; for fluorometer reading: 293T, 10 uM 458, 100,000 cells
# Procedure: (§1) “pcDNA3.1 zeo (+) APP(1-651)SW, K612V-(M1L)TATexonI,” “pMM321,” and “pUCd5TAT” are the same as in Example 1. H4 cells (ATCC HTB-148) are a neuronal cell line.
# (§2) • Day 1: Plated out 2×6 well plates of HEK293T cells and 2×6 well plates of H4 cells at 1×10^5 cells/well. • Day 2: Transfected cells with 2 μg total DNA—pcDNA3.1 zeo (+) APP(1-651)SW, K612V-(M1L)TATexonI and carrier (a pET-IN plasmid). Plate 1:
# (§3) 3,4: 0.1 μg pMM321+0.1 μg pcDNA3.1 zeo (+) APP(1-651)SW, K612V-(M1L)TATexonI+1.8 μg carrier (added too 0.5×carrier to this mix in 293T cells)
# Transfections for HEK293T cells: 9 μL Fugene/well. Combined with DNA in Optimem and incubated and added to cells according to manufacturer's instructions.
# (§4) Added 10 μM L-685,458 to Plates 1 and 2, wells 2 and 4 for both cell types within 1 hour of transfection. Observed cells periodically.
# (§5) Took pictures at 24, 46 hours after transfection, using AE lock to keep exposures constant between wells.
# (§6) Changed media on cells at 24 hours past transfection. Kept 10 μM L-685,458 on cells in wells 2 and 4.
# Took some photographs under fluorescent and white light (white light at low intensity) to reveal fluorescent and non-fluorescent cells. Conducted a subjective analysis of the photographs to see if the amount of inhibition by 10 μL-685,458 was in any way quantifiable. Counted bright (white in the middle), strong (blue middle), medium (green) and dim/non-fluorescent cells and determined the approximate fraction of each level of expression. Results follow:
# (§7) 100,000 cells from each well were trypsinized and placed in 0.1 mL phenol red-free media in a Costar 96-well dish and read using the fluorometer.
# APP processing [2] = assay: APP/TAT fusion protein with LTR-EGFP reporter (pMM321), transient transfection in H4 cells (Example 2); conditions: for fluorometer reading: 10 uM 458, 100,000 cells
# Procedure: as §1, §2, §3
# Transfections for H4 cells: 6 μL Fugene/well. Combined with DNA in Optimem and incubated and added to cells according to manufacturer's instructions.
# as §4, §5, §6, §7
# Aβ = assay: Production of Aβ in conditioned media of transfected 293T and H4 cells; conditions: 10 μM L-685,458, 1 mL conditioned media
# Procedure: 1 mL of conditioned media from each well was analyzed for production of Aβ.
# APP processing [3] = assay: APP/TAT fusion protein with LTR-GFP reporter in H4 cells, FLUOstar reading (Example 3); conditions: for Fluor Units: approximately 48 hours, 485 excitation/538 emission
# Procedure: 1. H4 cells (ATCC HTB-148) were transfected with the various constructs listed below using 6 μL Fugene per 100 μL Optimem and 100 μL Optimem per well (6-well dishes). Transfection reactions were incubated for 30 minutes prior to adding 100 μL dropwise onto wells.
# Transfections were done as follows:
# 1. 1 μg pMM321 (FIG. 25A-D) and 1 μg pcDNA3.1 backbone
# 1a. 1 μg pMM321 and 1 μg pcDNA3.1 (Invitrogen, San Diego, Calif.) backbone. Prior to transfection, 10 μM L-875,532 (γ-secretase inhibitor) was added to the well.
# 2. 1 μg pMM321 and 1 μg pRBR186 (FIG. 22A; APP expression vector; processing and inhibition of processing control)
# 2a. 1 μg pMM321 and 1 μg pRBR186. Prior to transfection, 10 μM L-875,532 was added to cells (transfection solution for 3-5 were prepared in bulk)
# 4. and 4a. 1 μg pMM321 and 1 μg pcDNA3.1 zeo (+) APP(1-651)SW, K612V-(M1L)TATexonI. Prior to transfection, 10 μM L-875,532 was added to the two wells.
# 5. and 5a. 1 μg pMM321 and 1 μg pcDNA3.1 zeo (+) APP(1-651)SW, K612V-(M1L)TATexonI. Prior to transfection, 10 μM Compound X was added to the two wells
# 7. 1 μg pMM321 and 1 μg pUCd5 TAT. Prior to transfection, 10 μM L-875,532 was added to the cells.
# Cells were assessed by eye under a fluorescence microscope the morning following transfection (˜20 hrs).
# At approximately 48 hours, cells were trypsinized, spun down, and resuspended in 100 μL PBS. The cellular contents of each well of the transfection plates were placed into one well of a 96-well fluorescence plate. Fluorescence was analyzed using the FLUOstar (485 excitation/538 emission).
# APP processing [4] = assay: APP-TAT-APPct32 fusion protein with LTR β-galactosidase reporter in P4-R5 HeLa cells (Example 8); conditions: 10 μM inhibitor
# Procedure: P4-R5 cells are HeLa cells that contain a stably integrated β-galactosidase reporter gene under the control of the HIV1 LTR.
# 1.) Cell count on P4-R5 cells=7.6×10^5 cells per ml in cDMEM (−)PR. Seeded sterile white luminometer TC plates with the following cell numbers:
# • 5×10^3/well=0.75 ml in 9.25 ml media • 1.0×10^4/well=1.5 ml in 8.5 ml media • Seeded 100 μL cells per well. • Incubate overnight at 37° C., 5% CO2. Day 2
# 2.) Made up media with appropriate dilutions of inhibitors. • On no-inhibitor controls, added 100 μL of cDMEM with 1% DMSO • On wells with Compound X, added 10 μM inhibitor in cDMEM • On wells with L-875,532, added 10 μM inhibitor in cDMEM
# 3.) Prior to transfection, pulled off media on P4-R5 cells and replaced with media −/+inhibitor. • FUGENE® transfection: • For FUGENE® transfection:
# 4.) Added 600 μL of OPTIMEM® to sterile EPPENDORF® tube and carefully added 30 μL FUGENE® to media, without touching walls of tube. Incubated at room temperature for 5 minutes. • In separate EPPENDORF® tubes, added each DNA. • Added FUGENE®/OPTIMEM® dropwise to DNA; incubated at room temperature for 15 minutes.
# Added 15 μL/well of DNA/FUGENE®/OPTIMEM® dropwise to media in appropriate wells on P4-R5 cells, swirling to mix. […]
# 6. Read immediately in luminometer using standard file. Filled in required fields, read plate.
# [5] = 293T cells, 46 hours, 1 μg pMM321 + 0.1 μg APP/TAT vector + cmpd (10 μM)
# [6] = 293T cells, 46 hours, 1 μg pMM321 + 1 μg APP/TAT vector + cmpd (10 μM), approximate fraction of cells
# [7] = 293T cells, 46 hours, 1 μg pMM321 + 1 μg APP/TAT vector + cmpd (10 μM)
smiles,measurement,setting,value
"CC(C)C[C@H](NC(=O)[C@H](Cc1ccccc1)C[C@@H](O)[C@H](Cc1ccccc1)NC(=O)OC(C)(C)C)C(=O)N[C@@H](Cc1ccccc1)C(N)=O [L-685,458, {1S-Benzyl-4R-[1-(1S-carbamoyl-2-phenylethylcarbamoyl)-1S-3-methylbutylcarbamoyl]-2R-hydroxy-5-phenylpentyl}carbamic acid tert-butyl ester]",inhibition of GFP,"APP processing [1]; 10 μM L-685,458, same wells as the Aβ analysis (293T and H4 cells)",substantial inhibition of GFP was not observed
same,inhibition of fluorescence (fluorometer),"APP processing [1]; 293T cells, 0.1 μg APP/TAT vector + 0.1 μg pMM321, 10 μM L-685,458",Inhibition of fluorescence was also observed
same,inhibition of fluorescence (fluorometer),"APP processing [1]; 293T cells, 1 μg APP/TAT vector + 1 μg pMM321, 10 μM L-685,458",reduced to background levels
same,"effect on numbers of fluorescing cells (Table 1, second run)","APP processing [1]; 293T cells, 1 μg pMM321 + 0.1 μg APP/TAT vector, with vs without cmpd",fewer bright and strong fluorescing cells as well as more non-fluorescent cells
same,"effect on numbers of fluorescing cells (Table 1, first run)","APP processing [1]; 293T cells, 1 μg pMM321 + 1 μg APP/TAT vector, with vs without cmpd",fewer strong and medium fluorescing cells as well as more non-fluorescent cells
same,# Bright,APP processing [1]; [5],23
same,# Med,APP processing [1]; [5],149
same,# Non,APP processing [1]; [5],194
same,# Strong,APP processing [1]; [5],32
same,% Med,APP processing [1]; [6],11%
same,% Non,APP processing [1]; [6],88%
same,% Strong,APP processing [1]; [6],0.8%
same,# Bright,APP processing [1]; [7],none
same,# Med,APP processing [1]; [7],66
same,# Non,APP processing [1]; [7],521
same,# Strong,APP processing [1]; [7],5
same,fluorometer reading,"APP processing [1]; 0.1 ug LTRGFP, 0.1 ug APPtat",14790
same,fluorometer reading,"APP processing [1]; 0.1 ug LTRGFP, 1 ug APPTAT",10491
same,fluorometer reading,"APP processing [1]; 1 ug LTRGFP, 0.1 ug APPtat",65535
same,fluorometer reading,"APP processing [1]; 1 ug LTRGFP, 1 ug APPTAT",14321
same,green (GFP) cells observed,"APP processing [1]; HEK293T cells, 24 hours, 0.1 μg pMM321 + 0.1 μg APP/TAT vector, 10 μM L-685,458","Bright, medium, and dim green cells"
same,green (GFP) cells observed,"APP processing [1]; HEK293T cells, 24 hours, 0.1 μg pMM321 + 1 μg APP/TAT vector, 10 μM L-685,458","Bright, medium, and dim green cells"
same,green (GFP) cells observed,"APP processing [1]; HEK293T cells, 24 hours, 1 μg pMM321 + 0.1 μg APP/TAT vector, 10 μM L-685,458",Fewer bright green cells/field but intensity does not appear strongly diminished
same,"green (GFP) cells observed, of 15 cells","APP processing [1]; HEK293T cells, 24 hours, 1 μg pMM321 + 1 μg APP/TAT vector, 10 μM L-685,458","6 very dim, 5 dim, 1 medium, 3 bright"
same,fluorometer reading,"APP processing [2]; H4, 0.1 ug LTRGFP, 0.1 ug APPtat",6957
same,fluorometer reading,"APP processing [2]; H4, 0.1 ug LTRGFP, 1 ug APPTAT",10031
same,fluorometer reading,"APP processing [2]; H4, 1 ug LTRGFP, 0.1 ug APPtat",7136
same,fluorometer reading,"APP processing [2]; H4, 1 ug LTRGFP, 1 ug APPTAT",25307
same,bright green cells/field,"APP processing [2]; H4 cells, 24 hours, 0.1 μg pMM321 + 1 μg APP/TAT vector, 10 μM L-685,458",3-5 cells/field
same,green (GFP) cells observed under the microscope,"APP processing [2]; H4 cells, 24 hours, 1 ug pMM321 + 1 ug APP/TAT vector, 10 μM L-685,458",reduced compared with well #1
same,inhibition of fluorescence (fluorometer),"APP processing [2]; H4 cells, any transfection conditions, 10 μM L-685,458",No inhibition of fluorescence was observed
same,Aβ in conditioned media,Aβ,completely inhibited to background levels
"C[C@H](NC(=O)Cc1cc(F)cc(F)c1)C(=O)N[C@H]1N=C(c2ccccc2)c2ccccc2N(C)C1=O [L-875,532]",Fluor Units,"APP processing [3]; pMM321 + APP-TAT-ct32, 10 μM inhibitor",8283 Fluor Units
same,decrease of fluorescence (fold),"APP processing [3]; pMM321 + APP/TAT vector, 10 μM inhibitor vs no inhibitor",2.5 ×
same,Fluor Units,"APP processing [3]; pMM321 + pRBR186 (control), 10 μM inhibitor",2161 Fluor Units
same,Fluor Units,"APP processing [3]; pMM321 alone (control), 10 μM inhibitor",3443 Fluor Units
same,fluorescence assessed by eye under a fluorescence microscope,"APP processing [3]; ~20 hrs, 1 μg pMM321 + 1 μg APP/TAT vector, 10 μM inhibitor",Clear inhibition of fluorescence
same,transactivation of the LTR by pUCd5TAT (control),APP processing [4],not affected by either inhibitor
